Broadly, the IC50 is the concentration needed to halve the response being measured.

T1 sequence (Q15858 whole entry): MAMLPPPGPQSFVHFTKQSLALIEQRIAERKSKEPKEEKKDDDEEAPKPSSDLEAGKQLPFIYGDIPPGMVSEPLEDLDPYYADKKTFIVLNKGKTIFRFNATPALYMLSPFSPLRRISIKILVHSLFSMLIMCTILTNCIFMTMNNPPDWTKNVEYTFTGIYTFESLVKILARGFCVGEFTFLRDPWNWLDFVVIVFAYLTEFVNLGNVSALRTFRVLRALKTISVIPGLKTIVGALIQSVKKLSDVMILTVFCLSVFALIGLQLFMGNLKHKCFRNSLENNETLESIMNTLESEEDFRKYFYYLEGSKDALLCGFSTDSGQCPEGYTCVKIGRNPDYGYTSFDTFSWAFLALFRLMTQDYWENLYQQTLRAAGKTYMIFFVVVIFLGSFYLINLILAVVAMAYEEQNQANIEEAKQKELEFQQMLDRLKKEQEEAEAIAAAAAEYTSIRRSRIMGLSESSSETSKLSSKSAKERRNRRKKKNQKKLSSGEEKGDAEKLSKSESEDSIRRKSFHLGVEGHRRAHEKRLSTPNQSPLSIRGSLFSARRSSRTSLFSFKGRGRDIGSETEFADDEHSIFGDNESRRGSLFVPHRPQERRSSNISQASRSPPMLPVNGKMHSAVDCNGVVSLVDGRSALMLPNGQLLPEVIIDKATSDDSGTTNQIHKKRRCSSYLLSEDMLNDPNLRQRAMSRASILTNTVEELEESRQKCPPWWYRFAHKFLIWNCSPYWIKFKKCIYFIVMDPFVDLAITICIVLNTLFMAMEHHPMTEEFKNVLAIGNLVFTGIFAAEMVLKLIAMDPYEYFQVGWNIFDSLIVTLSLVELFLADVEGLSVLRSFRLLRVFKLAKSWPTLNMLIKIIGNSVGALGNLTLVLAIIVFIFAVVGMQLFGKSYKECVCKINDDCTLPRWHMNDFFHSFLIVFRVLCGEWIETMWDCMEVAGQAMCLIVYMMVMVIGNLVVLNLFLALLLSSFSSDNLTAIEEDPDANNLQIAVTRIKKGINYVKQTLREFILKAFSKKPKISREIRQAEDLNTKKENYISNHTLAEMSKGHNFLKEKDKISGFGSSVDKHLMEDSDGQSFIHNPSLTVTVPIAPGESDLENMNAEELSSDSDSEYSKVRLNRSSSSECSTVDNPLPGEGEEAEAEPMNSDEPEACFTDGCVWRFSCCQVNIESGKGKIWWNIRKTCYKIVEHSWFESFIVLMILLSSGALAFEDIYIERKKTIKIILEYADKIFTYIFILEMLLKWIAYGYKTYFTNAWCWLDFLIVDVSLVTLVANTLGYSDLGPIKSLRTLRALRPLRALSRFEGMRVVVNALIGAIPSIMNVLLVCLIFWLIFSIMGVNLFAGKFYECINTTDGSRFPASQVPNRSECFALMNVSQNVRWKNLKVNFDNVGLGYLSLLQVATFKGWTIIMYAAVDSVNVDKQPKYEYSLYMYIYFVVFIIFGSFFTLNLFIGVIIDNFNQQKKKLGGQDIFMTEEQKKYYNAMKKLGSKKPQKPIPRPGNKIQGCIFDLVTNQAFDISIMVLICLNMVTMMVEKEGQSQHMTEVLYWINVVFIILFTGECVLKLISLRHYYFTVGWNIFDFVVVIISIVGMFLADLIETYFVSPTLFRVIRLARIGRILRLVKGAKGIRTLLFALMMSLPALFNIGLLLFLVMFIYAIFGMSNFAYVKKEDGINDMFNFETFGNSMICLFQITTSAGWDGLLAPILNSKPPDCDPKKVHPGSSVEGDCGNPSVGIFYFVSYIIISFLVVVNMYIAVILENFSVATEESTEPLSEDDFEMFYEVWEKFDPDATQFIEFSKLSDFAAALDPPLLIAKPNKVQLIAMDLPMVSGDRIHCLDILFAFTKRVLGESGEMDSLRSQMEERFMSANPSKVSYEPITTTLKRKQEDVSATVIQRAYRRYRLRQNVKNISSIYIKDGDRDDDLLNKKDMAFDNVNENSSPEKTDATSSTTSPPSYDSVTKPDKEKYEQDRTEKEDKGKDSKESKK

One assay concerns the target T1, human Nav1.7 (hNav1.7) (Homo sapiens, UniProt Q15858).
T1 construct: expressed in transfected cells
The assay can be described thus: hNav1.7 whole-cell patch-clamp electrophysiology (automated PatchXpress 7000A or manual) in stably expressing 293 cells. To be noted: average IC50. The format is cell-based. A digest of the protocol: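 Stably transfected 293 cells lacking endogenous sodium channels; peak current evoked by depolarizing pulses during increasing compound concentrations, automated at ~20% fractional inactivation, or manually at −140 mV (resting) and ~20% inactivation. Block taken at steady state, corrected for rundown; IC50 by Hill fit.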
In general terms: In patch-clamp work, channel activity is measured electrically.
On to `CNC(=O)c1cccc(Nc2ncnc(N3CCc4cc(OCC(F)(F)F)ccc4C3)n2)c1C` [Example 275], for which the IC50 turned out to be 22.6 µM. With `CNC(=O)c1cc(Nc2ncnc(N3CC(Oc4ccc(F)cc4)C3)n2)ccc1C` [Example 266], the IC50 was found to be 19.7 µM. As to `CNC(=O)c1cccc(Nc2ncnc(N3CCc4cc(C(O)C(F)(F)F)ccc4C3)n2)c1` (stereo not shown) [Example 292], the IC50 is over 30 µM. On the same count and under the same terms, the figure for `CNC(=O)c1cccc(Nc2ncnc(N3CC(Oc4c(F)cccc4F)C3)n2)c1` [Example 274] is 22.1 µM; for `CNC(=O)c1cccc(Nc2nc(C)nc(N3CC(Oc4ccc(F)cc4)C3)n2)c1` [Example 284] it is over 30 µM; for `CNC(=O)c1cccc(Nc2ncnc(N3CC(OCc4ccc(F)cc4)C3)n2)c1` [Example 272] it is 21.7 µM. Compound `CNC(=O)c1cccc(Nc2ncnc(NCc3noc(C(=O)NC4CC4)n3)n2)c1` [Example 289] had an IC50 of over 30 µM. `CNC(=O)c1cccc(Nc2ncnc(N3CC(Oc4ccccc4C#N)C3)n2)c1` [Example 297] registered an IC50 of over 30 µM.

In the case of `CNC(=O)c1cccc(Nc2ncnc(N3CC(C)(COc4ccccc4)C3)n2)c1` [Example 273], inhibition was half-maximal at 22.1 µM (IC50).

The assay is the same for the next values; noted with them: average IC50, human Nav1.7.
As to `CNC(=O)c1cccc(Nc2ncnc(N3CCN(c4cccc(OC)c4)CC3)n2)c1` [Example 44], the 50% inhibitory concentration (IC50) came out at 0.61 µM. In turn, `CNC(=O)c1cccc(Nc2ncnc(N3CCC(n4cc(-c5ccc(Cl)cc5)cn4)CC3)n2)c1` [Example 167] came in with an IC50 of 4.16 µM. Take `CNC(=O)c1cccc(Nc2ncnc(N3CC=C(c4ccc(OC(F)(F)F)cc4)CC3)n2)c1` [Example 136]: the IC50 came out at 2.72 µM.

In turn, `CNC(=O)c1cccc(Nc2ncnc(N3CC=C(c4ccc(C#N)cc4)CC3)n2)c1` [Example 99] displayed an IC50 of 1.43 µM. In turn, `Cc1ccc(N2CCN(c3ncnc(Nc4ccc(Cl)c(C(N)=O)c4)n3)CC2)cc1C` [Example 227] came in with an IC50 of 9.36 µM. `CNC(=O)c1cccc(Nc2ncnc(N3CC(COc4cccc(F)c4)C3)n2)c1` [Example 242] showed an IC50 of 11.2 µM. `CNC(=O)c1cccc(Nc2ncnc(N3CC(Oc4ccc(F)cc4F)C3)n2)c1` [Example 148] came in with an IC50 of 2.95 µM. In the case of `CNC(=O)c1cccc(Nc2ncnc(N3CCC(n4cc(-c5ccccc5)cn4)CC3)n2)c1` [Example 139], inhibition was half-maximal at 2.74 µM (IC50). `COCCNC(=O)c1cccc(Nc2ncnc(N3CC(Oc4ccc(Cl)cc4)C3)n2)c1` [Example 28] had an IC50 of 0.4 µM.

Compound `CNC(=O)c1cccc(Nc2ncnc(N3CCC(OCc4ccc(F)c(F)c4)CC3)n2)c1` [Example 228] came in with a concentration for half-maximal inhibition (IC50) of 9.42 µM.

`CNC(=O)c1cccc(Nc2ncnc(N3CCC(OCc4ccc(OC(F)(F)F)cc4)CC3)n2)c1` [Example 131] displayed an IC50 of 2.49 µM.

The compound `CNC(=O)c1cccc(Nc2ncnc(N3CCN(CCc4ccccc4)CC3)n2)c1` [Example 109] had an IC50 of 1.63 µM. With `CNC(=O)c1cccc(Nc2ncnc(N3CCN(c4ccc(C#N)cc4)CC3)n2)c1` [Example 195], the midpoint of inhibition, the IC50, lay at 6.03 µM. The compound `CNC(=O)c1cccc(Nc2ncnc(N3CCN(c4ccc(OC(F)(F)F)cc4)CC3)n2)c1C` [Example 202] registered an IC50 of 7.12 µM. In the case of `CNC(=O)c1cccc(Nc2ncnc(NCCOc3ccc(Cl)cc3)n2)c1` [Example 236], the IC50 turned out to be 10.4 µM.

For `CNC(=O)c1cccc(Nc2ncnc(N3CC(Oc4cccc(F)c4)C3)n2)c1` [Example 86], the IC50 is 1.2 µM. Same read-out and setting: in the case of `CNC(=O)c1cccc(Nc2ncnc(N3CCCN(Cc4ccccc4)CC3)n2)c1` [Example 203] it was 7.42 µM; in that of `CNC(=O)c1cccc(Nc2ncnc(N3CCc4cc(OCCC(F)(F)F)ccc4C3)n2)c1` [Example 77], 0.98 µM. Compound `CNC(=O)c1cc(Nc2ncnc(N3CC(Oc4ccc(Cl)cc4F)C3)n2)ccc1Cl` [Example 79] yielded a concentration for half-maximal inhibition (IC50) of 1 µM. On to `CNC(=O)c1cccc(Nc2ncnc(N3CCN(c4ccc(Cl)cn4)CC3)n2)c1` [Example 108], for which it took 1.61 µM to reach half-maximal inhibition (IC50). `CNC(=O)c1cccc(Nc2ncnc(N3CC(COc4ccc(OC(F)(F)F)cc4)C3)n2)c1` [Example 67]: inhibition was half-maximal at 0.85 µM (IC50). With `CNC(=O)c1cccc(Nc2ncnc(N3CCC4(CC3)OCc3ccccc34)n2)c1` [Example 259], inhibition was half-maximal at 17.1 µM (IC50). Compound `CNC(=O)c1cc(Nc2ncnc(N3CC(Oc4ccc(Cl)cc4)C3)n2)ccc1O` [Example 219] had an IC50 of 8.82 µM. The compound `CNC(=O)c1cccc(Nc2ncnc(N3CC(COc4ccc(OC)cc4)C3)n2)c1` [Example 223] came in with an IC50 of 9.19 µM. With `CNC(=O)c1cccc(Nc2ncnc(N3CCC(Oc4ccccc4Cl)CC3)n2)c1` [Example 85], the IC50 was 1.17 µM. In the case of `CNC(=O)c1cccc(Nc2ncnc(N3CCc4cc(C)ccc4C3)n2)c1` [Example 185], half-maximal inhibition (IC50) required 5.28 µM. As to `CNC(=O)c1cccc(Nc2ncnc(N3CCCN(c4ncc(C(F)(F)F)cc4Cl)CC3)n2)c1` [Example 107], the IC50 was found to be 1.61 µM.

As to `CNC(=O)c1cccc(Nc2ncnc(N3CCc4cc(C(F)(F)F)ccc4C3)n2)c1` [Example 216], half-maximal inhibition (IC50) required 8.6 µM. As for `CNC(=O)c1cccc(Nc2ncnc(N3CC(COc4ccccc4Cl)C3)n2)c1` [Example 247], the IC50 came to 12.8 µM. In turn, `CNC(=O)c1cccc(Nc2ncnc(N3CCc4ccccc4C3)n2)c1` [Example 243] showed an IC50 of 11.5 µM. On the same count and under the same terms, the figure for `CNC(=O)c1cccc(Nc2ncnc(N3CCN(c4cccc(C(F)(F)F)c4)CC3)n2)c1` [Example 43] is 0.6 µM; for `CNC(=O)c1cccc(Nc2ncnc(N3CC(Oc4ccccc4C(F)(F)F)C3)n2)c1` [Example 141] it is 2.79 µM. On the same count and under the same terms, the figure for `CNC(=O)c1cccc(Nc2ncnc(N3CCN(c4cccc(C)c4C)CC3)n2)c1` [Example 81] is 1.03 µM. In the case of `CNC(=O)c1cccc(Nc2ncnc(N3CCC(Cc4ccc(F)c(F)c4)CC3)n2)c1` [Example 151], it took 3.1 µM to reach half-maximal inhibition (IC50). The same measure, in the same setting: in the case of `CNC(=O)c1cc(Nc2ncnc(N3CC(COc4ccc(C(F)(F)F)cc4)C3)n2)ccc1Cl` [Example 96] it was 1.39 µM. Compound `CNC(=O)c1cccc(Nc2ncnc(N3CC(Oc4cccc(OC(F)(F)F)c4)C3)n2)c1` [Example 111] displayed an IC50 of 1.69 µM.

In turn, `CNC(=O)c1cc(Cl)cc(Nc2ncnc(N3CC(Oc4ccc(F)cc4)C3)n2)c1` [Example 262] yielded an IC50 of 17.8 µM.

Compound `CNC(=O)c1cccc(Nc2ncnc(N3CC(Oc4cccc(Cl)c4Cl)C3)n2)c1` [Example 104] returned a concentration for half-maximal inhibition (IC50) of 1.57 µM. The compound `CNC(=O)c1cc(Nc2ncnc(N3CCC(c4nc(-c5ccccc5)cs4)CC3)n2)ccc1Cl` [Example 27] displayed an IC50 of 0.4 µM. Take `CNC(=O)c1cccc(Nc2ncnc(N3CCN(c4ccccc4OC(F)(F)F)CC3)n2)c1` [Example 172]: inhibition was half-maximal at 4.45 µM (IC50). Consider `CNC(=O)c1cccc(Nc2ncnc(N3CCC(OCc4ccccc4)CC3)n2)c1` [Example 206], for which the IC50 worked out at 7.93 µM. In turn, `CNC(=O)c1cccc(Nc2ncnc(N3CCc4cc(OC(F)(F)F)ccc4C3)n2)c1` [Example 110] returned an IC50 of 1.67 µM. The compound `CNC(=O)c1cccc(Nc2ncnc(N3CC(Oc4ccc(Cl)cc4C)C3)n2)c1` [Example 20] displayed an IC50 of 0.32 µM. Same read-out and setting: the figure for `CNC(=O)c1cccc(Nc2ncnc(N3CCc4cc(F)ccc4C3)n2)c1` [Example 176] is 4.67 µM; for `CNC(=O)c1cccc(Nc2ncnc(N3CC(Oc4ccc(Cl)cc4F)C3)n2)c1` [Example 21] it is 0.33 µM. In the case of `CNC(=O)c1cccc(Nc2ccnc(N3CC(COc4ccc(Cl)cc4)C3)n2)c1` [Example 197], half-maximal inhibition (IC50) required 6.8 µM. Consider `CNC(=O)c1cccc(Nc2ncnc(NCCCOc3ccc(OC(F)(F)F)cc3)n2)c1` [Example 13], for which the half-maximal inhibitory concentration (IC50) is 0.27 µM. `CNC(=O)c1cccc(Nc2ncnc(N3CC(Oc4ccc(C(F)(F)F)cc4)C3)n2)c1` [Example 35] showed a 50% inhibitory concentration (IC50) of 0.47 µM.

In turn, `CNC(=O)c1cccc(Nc2ncnc(N3CC(OCc4ccc(Cl)cc4)C3)n2)c1` [Example 113] gave an IC50 of 1.82 µM. Compound `CNC(=O)c1cc(Nc2ncnc(NCCCOc3ccc(OC(F)(F)F)cc3)n2)ccc1Cl` [Example 75] showed an IC50 of 0.96 µM. Same read-out and setting: in the case of `CNC(=O)c1cccc(Nc2ncnc(N3CCC(c4ccc(C)c(C)c4)CC3)n2)c1` [Example 117] it was 2 µM. On the same count and under the same terms, the figure for `CNC(=O)c1cccc(Nc2ncnc(N3CCN(c4ccc(F)cc4)CC3)n2)c1` [Example 198] is 6.83 µM.

Still in this assay, the particulars now being: human Nav1.7 stably expressed in 293 cells; whole-cell patch clamp; average IC50 from Hill fit.
As to `CNC(=O)c1cccc(Nc2cc(N3CC(Oc4ccc(Cl)cc4F)C3)ncn2)c1` [Example Z, 3-((6-(3-(4-chloro-2-fluorophenoxy)-1-azetidinyl)-4-pyrimidinyl)amino)-N-methylbenzamide], half-maximal inhibition (IC50) required 12.7 µM. In turn, `CNC(=O)c1cccc(Nc2cc(N3CC(Oc4ccc(Cl)cc4F)C3)ccn2)c1` [Example T, 3-(4-(3-(4-chloro-2-fluorophenoxy)azetidin-1-yl)pyridin-2-ylamino)-N-methylbenzamide] showed an IC50 of 4.5 µM. In turn, `CNC(=O)c1cccc(Nc2cccc(N3CC(Oc4ccc(Cl)cc4F)C3)n2)c1` [Example W, 3-((6-(3-(4-chloro-2-fluorophenoxy)-1-azetidinyl)-2-pyridinyl)amino)-N-methylbenzamide] registered an IC50 of 2.78 µM.

Compound `CNC(=O)c1cccc(Nc2ncnc(N3CC(Oc4ccc(Cl)cc4F)C3)n2)c1` [Example Q, 3-(4-(3-(4-chloro-2-fluorophenoxy)azetidin-1-yl)-1,3,5-triazin-2-ylamino)-N-methylbenzamide] displayed an IC50 of 2.99 µM. Compound `CNC(=O)c1cccc(Nc2nc(N3CC(Oc4ccc(Cl)cc4F)C3)ncc2F)c1` [Example AK, 3-((2-(3-(4-chloro-2-fluorophenoxy)-1-azetidinyl)-5-fluoro-4-pyrimidinyl)amino)-N-methylbenzamide] showed an IC50 of 0.43 µM. Regarding `CNC(=O)c1cccc(Nc2nccc(N3CC(Oc4ccc(C)cc4)C3)n2)c1` [Example B, N-methyl-3-((4-(3-(4-methylphenoxy)-1-azetidinyl)-2-pyrimidinyl)amino)benzamide], the IC50 came to 2 µM.

(Values after patent publication US9334269B2, “Carboxamides as inhibitors of voltage-gated sodium channels” (AMGEN INC., priority 2010, dated 2016).)
